Laboratory results published in US20040204577A1, “Novel peptide-forming enzyme gene” (Ajinomoto Co., Inc., priority 2003, published 2004).
Where a SMILES comes first, the peptide text is derived from it.

What was measured:
[1] = system: microbial cells of Empedobacter brevis strain FERM BP-8113; assay: Production of peptide using microbial cells; type: cell-based; settings: 1 mL cell suspension (100 g/L) + 1 mL buffer with 200 mM carboxy component (hydrochloride) and 400 mM amino acid; borate buffer pH 9.0, 10 mM EDTA; 18° C., 2 hours
Description: A 50 mL medium (pH 6.2) containing 5 grams (g) of glucose, 5 g of ammonium sulfate, 1 g of monopotassium phosphate, 3 g of dipotassium phosphate, 0.5 g of magnesium sulfate, 10 g of yeast extract and 10 g of peptone in 1 liter (L) was transferred to a 500 mL Sakaguchi flask and sterilized at 115° C. for 15 minutes. This medium was then inoculated with one loopful cells of Empedobacter brevis strain FERM BP-8113 (Depositary institution: the independent administrative corporation, National Institute of Advanced Industrial Science and Technology, International Patent Organism Depositary, Address of depositary institution: Chuo Dai-6, 1-1 Higashi 1-Chome, Tsukuba-shi, Ibaraki-ken, Japan, International deposit transfer date: Jul. 8, 2002) that had been cultured at 30° C. for 16 hours in the same medium, followed by shake culturing at 30° C. for 16 hours and 120 strokes/min.

[2] = system: peptide-forming enzyme (Mono S fraction enzyme); assay: Enzyme substrate specificity (1)-(10), (13), (14): peptide production; type: biochemical, Empedobacter brevis; settings: pH 9.0, 25° C., 3 hours
In short: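 Mono S enzyme fraction in 100 mM borate buffer (pH 9.0) with 10 mM EDTA and 100 mM carboxy component (amino acid methyl esters or amides); amine components (L-glutamine, amino acids, amino acid amides or methylamine) at 150 mM, or 200 mM L-glutamine with varied esters. Reactions ran at 25° C for 2–3 hours; 0.1% Tween-80 added for Trp/Tyr-OMe.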

Formed peptide ([2]; 100 mM L-alanine methyl ester hydrochloride, L-amino acid 150 mM): 79.3 mM
Formed peptide ([2]; L-amino acid amide hydrochloride as carboxy component 100 mM, L-amino acid 150 mM): 7.6 mM
Formed peptide ([2]; L-amino acid methyl ester hydrochloride 100 mM, 150 mM L-glutamine): 74.6 mM
SMILES: C[C@H](N)C(=O)N[C@@H](CCC(N)=O)C(=O)O [L-Ala-L-Gln, L-alanyl-L-glutamine] (H-Ala-Gln-OH)
Formed peptide [1]: 68.0 mM
